Results as given in US9988380B2, “Quorum sensing inhibitors” (priority 2013, dated 2018).

Assays:
rhlA-gfp(ASV) expression = assay: Inhibition of the Rhl QS system, rhlA-gfp(ASV) reporter in PAO1 wild-type and lasR mutant; assay type: cell-based, P. aeruginosa
Experimental: (§1) Inhibition of the Rhl and PQS QS systems in wild-type PAO1 and PAO1 lasR mutant. Wild-type P. aeruginosa PAO1 strains harboring either the rhlA-gfp(ASV) reporter or the pqsA-gfp(ASV) reporter, and a P. aeruginosa PAO1 lasR mutant harboring either the rhlA-gfp(ASV) reporter or the pqsA-gfp(ASV) reporter were used for this experiment (Refer to FIG. 11 for strain information). Overnight cultures of these four strains were diluted 100-fold in ABTGC media within 96-well microtitre plates to a final volume of 200 μL per well. Each of the five QSIs was added in triplicate to a final concentration of 50 μM. 0.5% DMSO was used as a negative control. The microtitre plate was incubated at 37° C. in a Tecan Infinite 200 Pro plate reader where GFP and OD600 readings were measured at 15 min intervals.
(§2) Effect of QSIs on Rhl and Pqs Quorum-Sensing Systems. In order to address the problem of the specificity of present compounds, the five identified QSI compounds were tested to see if they had any effect on the rhl and pqs systems. The five QSIs were tested against a PAO1 wild-type and a PAO1 lasR mutant harboring either the rhlA-gfp (ASV) bioreporter or the pqsA-gfp (ASV) bioreporter. The rhlA system is dependent on the RhlR/I system. By doing so, we were able to determine if a QSI is able to inhibit the other two QS systems (i.e. rhl and pqs) in a lasR-dependent/independent manner (FIG. 8).

pqsA-gfp(ASV) expression = assay: Inhibition of the PQS QS system, pqsA-gfp(ASV) reporter in PAO1 wild-type and lasR mutant; assay type: cell-based, P. aeruginosa
Experimental: as §1, §2

[1] = system: LasR-controlled GFP expression in P. aeruginosa PAO1 lasB-gfp(ASV) strain; assay: P. aeruginosa QS inhibition assay with lasB-gfp(ASV) reporter strain; assay type: cell-based, Pseudomonas aeruginosa; conditions: for effect on cell growth / inhibition of LasR-controlled GFP expression: P. aeruginosa lasB-gfp(ASV) strain; for effect on cell growth: OD600; for inhibition of LasR-controlled GFP expression: 0.78125-50 μM
Experimental: P. aeruginosa QS inhibition assays. Test compounds were dissolved in 100% DMSO and mixed with ABTGC media, after which they were added to the first column of wells of a 96-well microtitre plate (Nunc) to give a final concentration of 100 μM in a final volume of 200 μl. 100 μL of ABTGC media was then added to the remaining wells in the plate and serial two-fold dilutions of the inhibitors were done by adding 100 μL of the preceding inhibitor-containing well to the subsequent one. The final column was left without inhibitor as a control. Next, an overnight culture of P. aeruginosa lasB-gfp(ASV) strain, grown in LB medium at 37° C. with shaking, was diluted to an optical density (OD) at 600 nm of 0.2, and 100 μl of bacterial suspension was added to each well of the microtitre plate. […] The microtitre plate was incubated at 37° C. in a Tecan Infinite 200 Pro plate reader (Tecan Group Ltd., Männedorf, Switzerland). GFP fluorescence (excitation at 485 nm, emission at 535 nm) and cell density (OD600) measurements were collected at 15 min intervals for at least 14 h. The P. aeruginosa Rhl and Pqs inhibition assays were performed in a similar manner to the LasR inhibition assay.
Inhibition Assay with the P. aeruginosa lasB-gfp(ASV) strain. In the preliminary screen, the 22 selected QSI candidates were screened for their ability to inhibit QS-controlled green fluorescent protein (GFP) expression in the P. aeruginosa lasB-gfp(ASV) strain. Elastase (encoded by the lasB gene) is a virulence factor that is controlled by LasR and therefore a good indicator for LasR activity. […] For ease of identification, each compound was designated a short compound identification code based on its well position in the shipment in place of its standard IUPAC name.
The dose-response curves of these 5 QSI candidates when incubated with the P. aeruginosa PAO1 lasB-gfp(ASV) strain are shown in FIG. 3. GFP expression, which was measured in relative fluorescence units, was normalized by dividing the GFP value by the corresponding OD600 value measured at that time-point. ‘Control’ refers to the PAO1 strain grown without the presence of QSI, and as expected, it had the highest GFP per OD values. For these five compounds, dose-dependent inhibition of lasB-gfp expression was observed, i.e. the higher the concentration of QSI that was present, the greater the inhibition of gfp expression.
IC50 Value Comparisons of the Five QSI Candidates. The slope of the curve for each QSI was calculated based on its respective dose-response curves (from FIG. 3) and plotted against the log inhibitor concentration. The slope is indicative of the biosynthesis rate of GFP due to AHL induction. The half maximal inhibitory concentrations (IC50) of the five QSI candidates were calculated using the Graphpad Prism 6 software package (GraphPad Software Inc., CA, USA).

elastase (lasB; PA3724) = conditions: cited from earlier work
protease IV = conditions: cited from earlier work

Row | Compound | effect on cell growth [1] | inhibition of LasR-controlled GFP expression [1] | reduction of expression of elastase (elastase (lasB; PA3724)) [fold] | further results
1 | NC(Cc1cccc(F)c1)C(=O)O (racemic) [Compound F1, 2-amino-3-(3-fluorophenyl)propanoic acid] | without affecting cell growth | inhibit LasR-controlled GFP expression in a dose-dependent manner |  | inhibition of rhlA-gfp expression (rhlA-gfp(ASV) expression; PAO1 lasR mutant, 50 μM QSI): 63.1%; inhibition of rhlA-gfp expression (rhlA-gfp(ASV) expression; wild-type PAO1, 50 μM QSI): 61.7%; inhibition of pqsA-gfp expression (pqsA-gfp(ASV) expression; PAO1 lasR mutant, 50 μM QSI): 39.4%; inhibition of pqsA-gfp expression (pqsA-gfp(ASV) expression; wild-type PAO1, 50 μM QSI): 25.4%
2 | NC(C(=O)O)C(O)c1ccccc1 (racemic) [Compound H1, 2-amino-3-hydroxy-3-phenylpropanoic acid] | without affecting cell growth | inhibit LasR-controlled GFP expression in a dose-dependent manner |  | 
3 | O=[N+]([O-])c1cc[n+]([O-])cc1 [Compound 4-NPO, 4-nitropyridine-N-oxide] |  |  | −22.6 | reduction of expression of protease IV (protease IV): −20.7 fold
4 | O=c1[nH]cnc2[nH]nnc12 [Compound C1, 6-hydro-3H-1,2,3-triazolo[5,4-d]pyrimidin-7-one] | without affecting cell growth | inhibit LasR-controlled GFP expression in a dose-dependent manner |  | IC50 of lasB-gfp expression, range in words ([1]; P. aeruginosa PAO1 lasB-gfp(ASV)): high nanomolar range
5 | O=C1C=C2C(=CCOC2O)O1 (stereo not drawn) [patulin] |  |  | −7 | 
6 | C=C(C)C(=O)C(=CC(=O)O)OC [penicillic acid] |  |  | −12 | 
